± gives the expanded uncertainty stated by the source.

For data set [1] the following is noted: Liquid; for mass density: 293.15 K, 101.33 kPa.
Data set [2] can be described thus: refractive index (Na D-line) (dimensionless). The conditions noted are these: 293.15 K; 101.33 kPa; Liquid; Standard Abbe refractometry.

As a reminder, the mass density is the mass of a sample divided by its volume. What is called vapor or sublimation pressure is the equilibrium pressure above the liquid or solid. As a reminder, the refractive index is a measure of how strongly the sample bends light. In the case of `CCCCC(C)=O` [2-hexanone], the mass density in data set [1] was 811.2 ± 0.8 kg/m3. Moreover, the “vapor or sublimation pressure” value is reported as 26.66 ± 0.27 kPa in data set [1] (359.51 K), 53.33 ± 0.32 kPa in data set [1] (379.52 K), 79.99 ± 0.45 kPa in data set [1] (392.57 K) and 101.32 ± 0.53 kPa in data set [1] (400.69 K). Further, in data set [2], the refractive index was determined as 1.4008 ± 0.0007.

On to `CCCCCCCCC` [nonane], for which the mass density in data set [1] was 717.6 ± 0.7 kg/m3. In addition, the “vapor or sublimation pressure” value in data set [1] (379.88 K) worked out at 26.66 ± 0.25 kPa; in data set [1] (401.28 K), 53.33 ± 0.3 kPa; in data set [1] (415.26 K) it was 79.99 ± 0.42 kPa; in data set [1] (423.97 K), 101.32 ± 0.49 kPa. In addition, the refractive index in data set [2] is recorded as 1.4055 ± 0.0007.

In the case of `CCCCCO` [pentan-1-ol], the mass density in data set [1] came out at 814.5 ± 0.8 kg/m3. Moreover, the “vapor or sublimation pressure” value in data set [1] (375.63 K) worked out at 26.66 ± 0.31 kPa; in data set [1] (392.7 K), 53.33 ± 0.37 kPa; in data set [1] (403.8 K) it was 79.99 ± 0.53 kPa; in data set [1] (410.79 K), 101.32 ± 0.61 kPa. Also, the refractive index in data set [2] is reported as 1.4098 ± 0.0007.

These data come from the NIST ThermoML archive (doi:10.1021/je0502905).
